Measurements from PubChem BioAssay AID488890 (Southern Research Specialized Biocontainment Screening …, 2010).
Records with an inconclusive call do not appear. The source made the active and inactive calls. No rule for the calls is given here.

Each molecule was assayed on Mycobacterium tuberculosis non-replicating, growth inhibition (assay: growth inhibition of non-replicating M. tuberculosis (AID 488890)).

Row | Structure (SMILES) | IC50
1 | CC1=NN(C(=O)c2cc(C)nn2C)C(O)(C(F)(F)F)C1 (stereo not given) | 7.51 µM
2 | O=c1c2cc(Br)ccc2nc(-c2cccc(C(F)(F)F)c2)n1O | 0.43 µM
3 | CC(=O)CC1(OC(C)=O)C(=O)N(C)c2ccccc21 (stereo not given) | 21.5 µM (inactive)
4 | COc1cccc(NC(=O)c2cnc(SC)nc2)c1 | 10.4 µM (inactive)
5 | COc1cccc(OCCNC(=O)c2cc([N+](=O)[O-])cc([N+](=O)[O-])c2)c1 | 0.49 µM
6 | O=C(Cc1cccs1)N/N=C\c1ccc([N+](=O)[O-])s1 | 11.6 µM (inactive)
7 | CCOC(=O)c1cc([N+](=O)[O-])c([N+](=O)[O-])cc1NC(C)=O | 2.44 µM
8 | Clc1cccc(OCCN2CCN(CCOc3cccc(Cl)c3)CC2)c1 | 21.7 µM (inactive)
9 | Cc1[nH]c2ccccc2c1C(=O)C(C)OC(=O)c1ccc([N+](=O)[O-])o1 (stereo not given) | 1.07 µM
10 | CC(C)(C)NC(=O)c1ccc(NC(=O)c2ccccc2-c2ccccc2C(=O)O)cc1 | 3.71 µM
11 | O=C1NCC(O)=C1C=Nc1ccccc1O | 6.37 µM
12 | CC(=O)N(Cc1ccc(F)cc1)C1=C(NCCc2ccccc2)C(=O)c2ccccc2C1=O | 4.4 µM
13 | O=C(CCNc1cccc(Cl)c1)c1ccco1 | 5.4 µM
14 | Cc1c(-c2ccc(Br)cc2)nc2ccccn12 | 18.9 µM (inactive)
15 | O=C(COC(=O)Cc1ccc(Br)cc1)Nc1ccc(N2CCOCC2)cc1 | 39.1 µM (inactive)
16 | COc1cccc(N2C(=O)NC(=O)/C(=C/c3ccc([N+](=O)[O-])s3)C2=O)c1 | 17.1 µM (inactive)
17 | CCOC(=O)c1csc(COc2ccc(OC)cc2)n1 | 7.75 µM
18 | Cc1ccc(C)c(NC(=O)c2cc([N+](=O)[O-])cc([N+](=O)[O-])c2)c1 | 28.3 µM (inactive)
19 | O=C(NC1CCOc2ccccc21)c1ccc(Cl)nc1 (stereo not given) | 1.46 µM
20 | Cc1cc(N/N=C/c2ccccc2O)c2ccccc2n1 | 10.1 µM (inactive)
21 | COC(=O)c1ccc(C(=O)NC2CCCc3c2cnn3-c2cc(F)cc(F)c2)nc1 (stereo not given) | 9.55 µM
22 | CC(C)CCC1=NN(C(=O)c2ccco2)C(O)(C(F)(F)F)C1 (stereo not given) | 0.94 µM
23 | NC(=O)COC(=O)c1sc2ccccc2c1Cl | 8.25 µM

Row | Structure (SMILES) | IC50
24 | CC(C)(C)c1ccc(S(=O)(=O)NNC(=O)c2cc3ccccc3[nH]2)cc1 | > 25 µM (inactive)
25 | CCn1cc(C(=O)O)c(=O)c2cc(F)c(N3CCN(C(=S)NC(=O)c4ccccc4)CC3)cc21 | 16.8 µM (inactive)
26 | Cc1onc(-c2ccccc2)c1C(=O)Nc1nnc(COc2ccc(Cl)cc2)s1 | 8.2 µM
27 | Cc1c(C(=O)N(C)C)sc2nc(-c3ccccn3)[nH]c(=O)c12 | 32.7 µM (inactive)
28 | CC1=NN(C(=O)c2ccccc2Cl)C(O)(c2ccccc2)C1 (stereo not given) | 1.43 µM
29 | CCn1nnc(NC(=O)c2sc3ccccc3c2Cl)n1 | 28.5 µM (inactive)
30 | Cc1cc(N/N=C/c2ccc(F)cc2)nc(-n2nc(C)cc2C)n1 | 4.92 µM
31 | CCC(=O)Nc1ccc(C(=O)NNC(=O)c2cc([N+](=O)[O-])cc([N+](=O)[O-])c2)cc1 | 12.9 µM (inactive)
32 | CCOc1ccc(N2CC(=O)Nc3ccccc3NCC2=O)cc1 | 3.98 µM
33 | O=C(N/N=C/c1cccc2cccnc12)[C@H]1C[C@@H]1c1ccccc1 | 13.1 µM (inactive)
34 | CCCS(=O)(=O)c1nnnn1-c1cccc(OC)c1 | 3.56 µM
35 | CCn1nnc(NC(=O)c2ccc([N+](=O)[O-])o2)n1 | 9.04 µM
36 | Cc1ccnc(-n2sc3ccccc3c2=O)n1 | 25.6 µM (inactive)
37 | O=C(Nc1nc2ccccc2n1CCOc1ccc(Cl)cc1)c1ccco1 | 14.4 µM (inactive)
38 | Cc1ccc(CCC(=O)Nc2ccccc2F)s1 | 26.2 µM (inactive)
39 | Cc1ccc(NC(=O)CN(C)C2CCCCC2)cc1Br | 0.35 µM
40 | O=C(COc1ccc2ccccc2c1Br)N1CCCC1 | 0.56 µM
41 | CCOC(=O)COc1cc(N)c(Cl)cc1Cl | 5.21 µM
42 | CC(C)N1CCc2c(sc(NC(=O)CCS(=O)(=O)c3ccccc3)c2C#N)C1 | 39.6 µM (inactive)
43 | O=C(CCSc1nnc(-c2ccncc2)o1)Nc1cccc(Cl)c1 | 20.3 µM (inactive)
44 | S=C1NC2(CCCC2)N=C1c1ccccc1 | 12.4 µM (inactive)
45 | COc1cccc(-c2nnc(NC(=O)c3ccc4ncsc4c3)o2)c1 | 9.06 µM
46 | CCOC(=O)COc1ccc2c(=O)c(-c3ccccc3OC)coc2c1 | 2.28 µM

Row | Structure (SMILES) | IC50
47 | CC(=O)Nc1nc2ccccc2n1Cc1ccccc1Cl | 14.1 µM (inactive)
48 | Cc1nnc(NC(=O)c2ccc3ccccc3c2)o1 | 1.55 µM
49 | COc1ccc(C(=O)COC(=O)c2ccc(Cl)nc2)c(OC)c1 | 10.7 µM (inactive)
50 | O=C(OCc1ccc([N+](=O)[O-])cc1)c1ccc2ccccc2n1 | 4.44 µM
51 | Cc1ccc(C(C)C)c(OCC(=O)OCc2c(C)noc2C)c1 | 3.51 µM
52 | O=C(OCc1c(Cl)cccc1Cl)c1ccccn1 | 6.6 µM
53 | O=C(N/N=C/c1cccc2nccnc12)c1ccncc1 | 1.13 µM
54 | COc1cc(/C=C/c2ccc3c([N+](=O)[O-])cccc3n2)ccc1OCC(=O)O | 1.79 µM
55 | C/C(=N\NC(=O)CCc1ccccc1)C1C(=O)c2ccccc2C1=O | 0.25 µM
56 | Cc1ccc2c(c1)c1c3n2CCN=C3CCC1 | 15.2 µM (inactive)
57 | COc1ccc(C(=O)NNC(=S)NC(=O)c2cccc([N+](=O)[O-])c2)cc1 | 11.8 µM (inactive)
58 | COc1ccc(C(=O)Oc2cccc3cccnc23)cc1S(=O)(=O)N1CCOCC1 | 1.19 µM
59 | CCCc1cc(NCCCn2ccnc2)n2nc(C)c(-c3ccccc3)c2n1 | 19.5 µM (inactive)
60 | CC(NC(=O)COc1ccc(-c2ccccc2)cc1)C1CCCO1 (stereo not given) | 8.2 µM
61 | CC1COC(=O)C(NNc2ccc(Cl)c(Cl)c2)=N1 (stereo not given) | 8.67 µM
62 | COC(=O)c1ccc2c(c1O)C(=O)c1ccccc1C2=O | 1.44 µM
63 | N#Cc1ccc(-c2ccc(OCC(=O)Nc3cccnc3)cc2)cc1 | 1.43 µM
64 | COc1cccc(OCc2nnc(-c3cccs3)o2)c1 | 1.57 µM
65 | c1ccc(C[C@H]2CNCCN2CCCCC2CCCCC2)cc1 | 17.7 µM (inactive)
66 | Cc1cc(/C=N\NC(=O)c2cccs2)c(C)n1-c1ccc2ncccc2c1 | > 25 µM (inactive)
67 | COc1ccc(N2C(=O)NC(=O)/C(=C/c3ccc([N+](=O)[O-])s3)C2=O)cc1 | 16.1 µM (inactive)
68 | NC(N)=N/N=C/c1cccc([N+](=O)[O-])c1O | 2.01 µM
69 | O=C(N/N=C/c1ccccn1)c1ccccc1 | 14.6 µM (inactive)

Row | Structure (SMILES) | IC50
70 | O=C(NNC(=O)C12CC3CC(CC(C3)C1)C2)c1cnccn1 | 32.2 µM (inactive)
71 | CCOC(=O)COc1ccc(C(=O)Nc2cccc(Cl)c2C)cc1 | 0.23 µM
72 | O=S(=O)(Nc1nccs1)c1ccc(NCc2cc(Br)cc(Br)c2O)cc1 | 10.7 µM (inactive)
73 | Clc1ccccc1OCc1nnc(-c2ccccc2)o1 | 4.35 µM
74 | CCCOc1ccc(CCC(=O)N/N=C/c2ccc([N+](=O)[O-])o2)cc1 | 4.22 µM
75 | Cc1ccc(OCC(=O)OCc2c(C)noc2C)cc1C | 11.7 µM (inactive)
76 | c1ccc(C2=Nc3ccccc3OC2)cc1 | 4.54 µM
77 | CC(C)(C)C(=O)/C=C/Nc1ccccc1O | 4.66 µM
78 | O=C(N/N=C/c1ccc(Br)s1)c1cccnc1 | 9.43 µM
79 | CC(C)OC(=O)COc1ccc(-c2ccccc2)cc1 | 3.25 µM
80 | CN(C)CCC(=O)N1c2ccccc2Sc2ccc(C(F)(F)F)cc21 | 17.9 µM (inactive)
81 | CCCCCCCCCCn1ccc(=N)cc1 | 14.5 µM (inactive)
82 | COC(=O)COc1cccc(/C=N/NC(=O)CCSc2ccccc2)c1 | 9.71 µM
83 | Cc1ccc(S(=O)(=O)N2CCC(C(=O)OCc3ccccc3)CC2)cc1C | 9.82 µM
84 | CC(C)(C)NC(=O)COC(=O)c1snc(C(=O)NC2CCCCC2)c1N | 1.64 µM
85 | Cc1ccc(S(=O)(=O)/N=C(\CCl)N2CCOCC2)cc1 | 11.9 µM (inactive)
86 | Cc1ccc(NC(=O)CCSc2nnc(-c3ccco3)o2)cc1 | 8.38 µM
87 | CC1CCCN(CCC(=O)c2ccc(Br)cc2)C1 (stereo not given) | 1.16 µM
88 | COc1ccc(C(=O)CC(=O)C(=O)NCCc2cccc(C)c2)cc1 | 4.42 µM
89 | C/C(=N\NC(=O)CCCNc1ccc(C)cc1)c1ccccn1 | 9.07 µM
90 | COC(=O)c1cccc(NC(=O)COc2cccc([N+](=O)[O-])c2)c1 | 7.11 µM
91 | COc1ccc(CN2CCC(C(=O)Nc3ccc(Oc4cccnc4)cc3)CC2)c(C)c1C | 7.54 µM
92 | CCCOc1ccc(C(=O)NNC(=S)NC(=O)c2cccs2)cc1 | 0.46 µM

Row | Structure (SMILES) | IC50
93 | Cc1ccc(-c2nnc(NC(=O)c3ccco3)o2)c(C)c1 | 6.85 µM
94 | O=C(CCS(=O)(=O)c1ccccc1)Nc1nnc(-c2ccco2)o1 | 7.69 µM
95 | COc1ccc(CCOC(=O)c2ccc(N)c([N+](=O)[O-])c2)cc1 | 12.3 µM (inactive)
96 | Sc1oc(-c2ccccc2)cc1C=Nc1ccccc1 | 26 µM (inactive)
97 | S=c1c2c(nc3nc[nH]n13)CCC2 | 4.68 µM
98 | O=[N+]([O-])c1cc2oc3c(c2c(C=NCc2ccccc2)c1O)CCCC3 | 2.89 µM
99 | COc1cc2c(cc1OC)CN(C(=O)c1ccc([N+](=O)[O-])o1)CC2 | 1.29 µM
100 | COc1cccc(/C=C2\SC(=S)N(CCC(=O)N3CCCCC3)C2=O)c1 | 9.08 µM
101 | O=C(NNC(=O)c1ccccn1)c1cccc([N+](=O)[O-])c1 | 11 µM (inactive)
102 | COc1cccc(F)c1C(C[N+](=O)[O-])c1c(N)n(C)c(=O)n(C)c1=O (stereo not given) | 7.59 µM
103 | Cc1ccc(-c2cc(C(F)(F)F)n3nc(C(=O)NCCCn4ccnc4)cc3n2)cc1C | 14.1 µM (inactive)
104 | Cc1cc(C)n2[nH]c(=O)c(N=Nc3cccc(Cl)c3)c2n1 | 4.13 µM
105 | CCOC(=O)c1c(C)nc2cc(C)ccn12 | 5.9 µM
106 | CC(=O)c1c(C)n(C)c2ccc(OC(=O)c3ccco3)cc12 | 10.3 µM (inactive)
107 | COc1ccccc1/C=C/C=N/NC(=O)c1ccncc1 | 1.08 µM
108 | O=c1cc(-c2ccccc2Cl)oc2c([N+](=O)[O-])c(O)cc(O)c12 | 5.05 µM
109 | Oc1c(Br)cc(Br)cc1/C=N/c1nccs1 | 21.2 µM (inactive)
110 | CN1CCC(O)(c2ccc(Cl)cc2)C(C(=O)c2ccc(Cl)cc2)C1 (stereo not given) | 1.97 µM
111 | CCCCOC(=O)c1ccc(NC(=O)c2nn(C)cc2Br)cc1 | 20.4 µM (inactive)
112 | CCC(=O)Nc1nc2ccccc2n1Cc1ccc(Cl)cc1 | 0.84 µM
113 | CCCCNC(=O)COC(=O)c1cc(F)c(F)cc1Cl | 5.61 µM
114 | O=C(Oc1cccc2cccnc12)c1cccc(-n2cnnn2)c1 | 22.9 µM (inactive)
115 | O=C(NC1CCCC1)c1nc2c(nnn2Cc2cccc(Cl)c2)c(=O)[nH]1 | 19.8 µM (inactive)
